{"source": "patent US20230146455A1", "about": "“TREATMENT OF INFLAMMATORY DISEASES WITH PEPTIDES AND PHARMACEUTICAL COMPOSITIONS” (Yuyu Pharma, Inc., priority 2020, published 2023)", "tested_on": "TNF-alpha", "assay": "Example 9 Luminex, LPS hPBMCs: TNF-alpha", "type": "cell-based, human", "description": "Treatment Human PBMCs were pretreated with YY-101, YDE-011 and YDE-043 or reference compound; Xiidra® at various concentration (ranging from 1 nM to 100 uM) for 2 h before stimulation. An equal volume of 0.5% DMSO was used as a vehicle control. Then, the cells were treated with LPS at 5 ug/ml. The supernatants from treated cells were harvested at 24 h and placed in a 96 well for Luminex cytokine & chemokine profiling using a Luminex 200 multiplex assay (Luminex; R&D system, USA).\nThe main study arm with triplicate wells per group in a 24-well plate: • 1. Blank • 2. PBMC: 0.5% DMSO • 3. PBMC+LPS (5 ug/ml) • 4. PBMC+YY-101 100 uM • 5. PBMC+YY-101 10 uM • 6. PBMC+YY-101 1 uM • 7. PBMC+YY-101 0.1 uM • 8. PBMC+YY-101 0.01 uM • 9. PBMC+LPS (5 ug/ml)+Xiidra®100 uM • 10. PBMC+LPS (5 ug/ml)+Xiidra® 10 uM • 11. PBMC+LPS (5 ug/ml)+Xiidra® 1 uM • 12. PBMC+LPS (5 ug/ml)+Xiidra®0.1 uM • 13. PBMC+LPS (5 ug/ml)+Xiidra®0.01 uM • 14. PBMC+LPS (5 ug/ml)+Xiidra®0.001 uM • 15. PBMC+LPS (5 ug/ml)+YY-101 100 uM • 16. PBMC+LPS (5 ug/ml)+YY-101 10 uM • 17. PBMC+LPS (5 ug/ml)+YY-101 1 uM • 18. PBMC+LPS (5 ug/ml)+YY-101 0.1 uM • 19. PBMC+LPS (5 ug/ml)+YY-101 0.01 uM • 20. PBMC+LPS (5 ug/ml)+YY-101 0.001 uM • 21. PBMC+LPS (5 ug/ml)+YDE-011 100 uM • 22. PBMC+LPS (5 ug/ml)+YDE-011 10 uM • 23. PBMC+LPS (5 ug/ml)+YDE-011 1 uM • 24. PBMC+LPS (5 ug/ml)+YDE-011 0.1 uM • 25. PBMC+LPS (5 ug/ml)+YDE-011 0.01 uM • 26. PBMC+LPS (5 ug/ml)+YDE-011 0.001 uM • 27. PBMC+LPS (5 ug/ml)+YDE-043 100 uM • 28. PBMC+LPS (5 ug/ml)+YDE-043 10 uM • 29. PBMC+LPS (5 ug/ml)+YDE-043 1 uM • 30. PBMC+LPS (5 ug/ml)+YDE-043 0.1 uM • 31. PBMC+LPS (5 ug/ml)+YDE-043 0.01 uM • 32. PBMC+LPS (5 ug/ml)+YDE-043 0.001 uM\nMultiplex assay was used to measure 30 cytokines and chemokines. The 1:2, 1:10 and 1:200 diluted cell supernatant and serial dilution of the standard were dispensed into a 96 well plate at 50 ul/well. Then, the pre-mixed cocktail of antibody-coated magnetic beads was dispensed at 50 ul/well and incubated at room temperature for 2 h in a horizontal orbital microplate shaker at 800±500 rpm. The beads were washed using a magnetic device to prevent loss. The biotin-antibody was dispensed in 50 ul of each well and incubated at room temperature for 1 h in a shaker at 800±500 rpm. After washing, streptavidin-PE was added at 50 ul/well and incubated at room temperature for 30 min in a shaker under the same conditions. Finally, after washing, wash buffer (100 ul/well) was added to the plate and incubated in a shaker for 2 min. The Luminex™ 200 setting were set according to the manufacturer's protocol. The data was calculated with a standard five-parameter logistic nonlinear regression analysis of the data (xPonent software 4.2, USA). The levels of cytokine/chemokine are normalized to the live cell counts (1×10^5 cells/mL) and presented as concentrations per mL (pg/mL or ng/mL).", "key": {"[1]": {"conditions": "PBMC + LPS(5 ug/ml) + test article 0.001 uM, Mean"}, "[2]": {"conditions": "PBMC + LPS(5 ug/ml) + test article 0.001 uM, individual replicates (1st, 2nd, 3rd)"}, "[3]": {"conditions": "PBMC + LPS(5 ug/ml) + test article 0.01 uM, Mean"}, "[4]": {"conditions": "PBMC + LPS(5 ug/ml) + test article 0.01 uM, individual replicates (1st, 2nd, 3rd)"}, "[5]": {"conditions": "PBMC + LPS(5 ug/ml) + test article 0.1 uM, Mean"}, "[6]": {"conditions": "PBMC + LPS(5 ug/ml) + test article 0.1 uM, individual replicates (1st, 2nd, 3rd)"}, "[7]": {"conditions": "PBMC + LPS(5 ug/ml) + test article 1 uM, Mean"}, "[8]": {"conditions": "PBMC + LPS(5 ug/ml) + test article 1 uM, individual replicates (1st, 2nd, 3rd)"}, "[9]": {"conditions": "PBMC + LPS(5 ug/ml) + test article 10 uM, Mean"}, "[10]": {"conditions": "PBMC + LPS(5 ug/ml) + test article 10 uM, individual replicates (1st, 2nd, 3rd)"}, "[11]": {"conditions": "PBMC + LPS(5 ug/ml) + test article 100 uM, Mean"}, "[12]": {"conditions": "PBMC + LPS(5 ug/ml) + test article 100 uM, individual replicates (1st, 2nd, 3rd)"}, "[13]": {"conditions": "PBMC + test article 0.01 uM, no LPS, Mean"}, "[14]": {"conditions": "PBMC + test article 0.01 uM, no LPS, individual replicates (1st, 2nd)"}, "[15]": {"conditions": "PBMC + test article 0.1 uM, no LPS, Mean"}, "[16]": {"conditions": "PBMC + test article 0.1 uM, no LPS, individual replicates (1st, 2nd)"}, "[17]": {"conditions": "PBMC + test article 1 uM, no LPS, Mean"}, "[18]": {"conditions": "PBMC + test article 1 uM, no LPS, individual replicates (1st, 2nd)"}, "[19]": {"conditions": "PBMC + test article 10 uM, no LPS, Mean"}, "[20]": {"conditions": "PBMC + test article 10 uM, no LPS, individual replicates (1st, 2nd)"}, "[21]": {"conditions": "PBMC + test article 100 uM, no LPS, Mean"}, "[22]": {"conditions": "PBMC + test article 100 uM, no LPS, individual replicates (1st, 2nd)"}}, "note": "Several values for one entry are separate records, joined by “and”; a condition that tells them apart may be missing. Identical values can stand only once. Where a SMILES comes first, the peptide text is derived from it. [ ]: non-standard residue; d: D form. Hyp = O=C(O)[C@@H]1C[C@@H](O)CN1"}
{"smiles": "CC(C)C[C@H](NC(=O)CNC(=O)[C@H](CC(=O)O)NC(=O)[C@H](CCC(N)=O)NC(=O)CNC(=O)[C@@H]1C[C@@H](O)CN1)C(=O)N[C@@H](C)C(=O)NCC(=O)N1CCC[C@H]1C(=O)N[C@@H](CCCCN)C(=O)O", "note": "[YY-101] (H-[Hyp]GQDGLAGPK-OH; N-terminus and C-terminus assumed)", "values": [{"measurement": "LPS-induced TNF-alpha (in words)", "setting": "LPS 5 ug/mL 24 hrs, at as low as 1 nM", "value": "significantly reduced"}, {"measurement": "TNF-alpha Concentration", "setting": "[1]", "value": 2433.4, "unit": "pg/mL"}, {"measurement": "TNF-alpha conc/live cell", "setting": "[1]", "value": 379.7, "unit": "pg/10^5"}, {"measurement": "TNF-alpha Concentration", "setting": "[2]", "value": "2537.1 pg/mL and 2609.2 pg/mL and 2154.0 pg/mL"}, {"measurement": "TNF-alpha conc/live cell", "setting": "[2]", "value": "445.1 pg/10^5 and 367.5 pg/10^5 and 326.4 pg/10^5"}, {"measurement": "TNF-alpha Concentration", "setting": "[3]", "value": 2746.9, "unit": "pg/mL"}, {"measurement": "TNF-alpha conc/live cell", "setting": "[3]", "value": 445.6, "unit": "pg/10^5"}, {"measurement": "TNF-alpha Concentration", "setting": "[4]", "value": "2819.6 pg/mL and 2784.2 pg/mL and 2636.8 pg/mL"}, {"measurement": "TNF-alpha conc/live cell", "setting": "[4]", "value": "440.6 pg/10^5 and 464.0 pg/10^5 and 432.3 pg/10^5"}, {"measurement": "TNF-alpha Concentration", "setting": "[5]", "value": 2852.4, "unit": "pg/mL"}, {"measurement": "TNF-alpha conc/live cell", "setting": "[5]", "value": 489.7, "unit": "pg/10^5"}, {"measurement": "TNF-alpha Concentration", "setting": "[6]", "value": "2791.9 pg/mL and 2870.4 pg/mL and 2895.0 pg/mL"}, {"measurement": "TNF-alpha conc/live cell", "setting": "[6]", "value": "450.3 pg/10^5 and 552.0 pg/10^5 and 466.9 pg/10^5"}, {"measurement": "TNF-alpha Concentration", "setting": "[7]", "value": 2552.6, "unit": "pg/mL"}, {"measurement": "TNF-alpha conc/live cell", "setting": "[7]", "value": 392.3, "unit": "pg/10^5"}, {"measurement": "TNF-alpha Concentration", "setting": "[8]", "value": "2738.1 pg/mL and 2506.5 pg/mL and 2413.2 pg/mL"}, {"measurement": "TNF-alpha conc/live cell", "setting": "[8]", "value": "434.6 pg/10^5 and 353.0 pg/10^5 and 389.2 pg/10^5"}, {"measurement": "TNF-alpha Concentration", "setting": "[9]", "value": 2746.8, "unit": "pg/mL"}, {"measurement": "TNF-alpha conc/live cell", "setting": "[9]", "value": 416.6, "unit": "pg/10^5"}, {"measurement": "TNF-alpha Concentration", "setting": "[10]", "value": "2741.2 pg/mL and 2807.3 pg/mL and 2692.0 pg/mL"}, {"measurement": "TNF-alpha conc/live cell", "setting": "[10]", "value": "456.9 pg/10^5 and 438.6 pg/10^5 and 354.2 pg/10^5"}, {"measurement": "TNF-alpha Concentration", "setting": "[11]", "value": 2443.4, "unit": "pg/mL"}, {"measurement": "TNF-alpha conc/live cell", "setting": "[11]", "value": 423.4, "unit": "pg/10^5"}, {"measurement": "TNF-alpha Concentration", "setting": "[12]", "value": "2569.3 pg/mL and 2318.5 pg/mL and 2442.3 pg/mL"}, {"measurement": "TNF-alpha conc/live cell", "setting": "[12]", "value": "407.8 pg/10^5 and 374.0 pg/10^5 and 488.5 pg/10^5"}, {"measurement": "TNF-alpha Concentration", "setting": "[13]", "value": 28.1, "unit": "pg/mL"}, {"measurement": "TNF-alpha conc/live cell", "setting": "[13]", "value": 5.6, "unit": "pg/10^5"}, {"measurement": "TNF-alpha Concentration", "setting": "[14]", "value": "26.8 pg/mL and 29.4 pg/mL"}, {"measurement": "TNF-alpha conc/live cell", "setting": "[14]", "value": "5.1 pg/10^5 and 6.1 pg/10^5"}, {"measurement": "TNF-alpha Concentration", "setting": "[15]", "value": 29.4, "unit": "pg/mL"}, {"measurement": "TNF-alpha conc/live cell", "setting": "[15]", "value": 5.8, "unit": "pg/10^5"}, {"measurement": "TNF-alpha Concentration", "setting": "[16]", "value": "26.8 pg/mL and 32.0 pg/mL"}, {"measurement": "TNF-alpha conc/live cell", "setting": "[16]", "value": "6.1 pg/10^5 and 5.5 pg/10^5"}, {"measurement": "TNF-alpha Concentration", "setting": "[17]", "value": 33.3, "unit": "pg/mL"}, {"measurement": "TNF-alpha conc/live cell", "setting": "[17]", "value": 6.1, "unit": "pg/10^5"}, {"measurement": "TNF-alpha Concentration", "setting": "[18]", "value": "32.0 pg/mL and 34.6 pg/mL"}, {"measurement": "TNF-alpha conc/live cell", "setting": "[18]", "value": "5.8 pg/10^5 and 6.3 pg/10^5"}, {"measurement": "TNF-alpha Concentration", "setting": "[19]", "value": 61.4, "unit": "pg/mL"}, {"measurement": "TNF-alpha conc/live cell", "setting": "[19]", "value": 9.7, "unit": "pg/10^5"}, {"measurement": "TNF-alpha Concentration", "setting": "[20]", "value": "90.9 pg/mL and 32.0 pg/mL"}, {"measurement": "TNF-alpha conc/live cell", "setting": "[20]", "value": "14.2 pg/10^5 and 5.2 pg/10^5"}, {"measurement": "TNF-alpha Concentration", "setting": "[21]", "value": 72.7, "unit": "pg/mL"}, {"measurement": "TNF-alpha conc/live cell", "setting": "[21]", "value": 11.0, "unit": "pg/10^5"}, {"measurement": "TNF-alpha Concentration", "setting": "[22]", "value": "95.0 pg/mL and 50.5 pg/mL"}, {"measurement": "TNF-alpha conc/live cell", "setting": "[22]", "value": "14.8 pg/10^5 and 7.2 pg/10^5"}]}
